Test results reported in paper PMC11063903, “Engineering a human P2X2 receptor with altered ligand selectivity in yeast” (The Journal of Biological Chemistry, 2024).

Tests used:
[1] = molecular target: T1, P2X2 G353 histidine substitution (G353H) (Homo sapiens, UniProt Q9UBL9, G353H); experiment: Site-saturation screen, fast kinetic assay in yeast, G353 histidine; type: cell-based; conditions: 500 μM ATP, ΔF/ΔT normalized to WT
T1 construct: expressed in transfected cells; host or cells: S. cerevisiae BY4741 background
Experimental: Figure 2 P2X2 SNP testing.A, homology model of P2X2 with the clinically implicated SNPs highlighted. V60 is highlighted in magenta and G353 is highlighted in dark blue. Lines indicate the positions of the mutations on each of the three monomers. B, zoomed view of the transmembrane region from the purple box in (A). V60 is magenta and G353 is dark blue. The structure is rotated 60° on the right image. C, screening data from site-saturation of the V60 residue in saturating ATP concentration (500 μM f.c.) using the fast kinetic assay. Signal onset values (ΔF/ΔT) are normalized to values from the WT receptor. […] Each of 2 to 3 replicates is represented as a single point. […]
GCaMP assays were performed as follows. […] Cells were loaded onto a black, clear bottom microplate and imaged on a FlexStation3 plate reader. […] Fluorescence was measured with an excitation at 485 nm, and emission 525 nm. […] For strains with mScarlet, fluorescence was read with excitation 570 nm/emission 610 nm. Slopes were calculated from the last 6 points of measurement and were normalized to the positive control samples. Any replicate in which the mScarlet value was measured to be over 2 standard deviations less than the mean for that set was discarded from further analysis.

P2X2 Y299F = molecular target: T2, P2X2 Y299F (Homo sapiens, UniProt Q9UBL9, Y299F); experiment: Site-saturation screen of ligand-binding domain with ATP, Y299F; type: cell-based; conditions: 500 μM ATP, ± sd
T2 construct: expressed in transfected cells; host or cells: S. cerevisiae BY4741 background
From the text: The yeast P2X2 screening platform poses an opportunity to probe the structure-function of the ligand-binding domain in detail. The conserved P2X “NFR” motif at residues 300 to 302 is directly involved in bonding to the ATP triphosphate moiety ([41]), so we mutagenized residues at or near this motif (298–304), ultimately covering 133 variants (7 sites, 19 residues each). […] We compared our results to phylogenetic data based on a multiple sequence alignment (MSA) from a curated set of 419 related P2X homologs (Figs. 3B, and S5; Table S1).
Figure 3 Structure-function analysis of the ligand binding domain.A, heat map summarizing the screening data of ATP with seven site-saturation libraries surrounding the NFR-motif. B, sequence-logo plot of the mutagenized residues and percent identity scores as determined from MSA. C, homology model of P2X2 colored by sequence conservation as calculated from a multiple sequence alignment of 419 related P2X genes. Conservation is scored on a log scale where maroon is more conserved and blue is less conserved. D, ATP in the ligand-binding pocket of P2X2. […]
GCaMP assays were performed as follows. […] Cells were loaded onto a black, clear bottom microplate and imaged on a FlexStation3 plate reader. […] Fluorescence was measured with an excitation at 485 nm, and emission 525 nm. […] For strains with mScarlet, fluorescence was read with excitation 570 nm/emission 610 nm. […]

[2] = tested on: Crz1p nuclear localization (calcineurin pathway) in WT-P2X2 strain; experiment: GFP-Crz1p nuclear localization in P2X2 yeast after ATP injection; type: cell-based, S. cerevisiae; conditions: five minutes after ATP injection, 200 μM ATP (f.c.)
From the text: As further validation of P2X2 function in yeast, we sought to investigate whether P2X2 could trigger the calcineurin pathway, which is a native pathway controlled by calcium. After intracellular calcium levels rise, calcineurin regulates the nuclear localization of transcription factor Crz1p ([27]). To test if unnatural ion channels could activate this pathway, a GFP-tagged Crz1p was co-expressed with P2X2 in yeast. […] The degree of nuclear localization was double that of a negative control mutant P2X receptor.
Yeast strains EG.y156 WT-P2X2 or EG.y66 broken-P2X2 were transformed with EG.B723 GFP-tagged Crz1p. Yeast were cultured and induced as previously described. Cells were loaded onto a cell imaging microplate (Eppendorf, cat. no. 0030741030) that was pre-treated with Poly-D-lysine (50 μg/ml). Cells (50 μl) were attached to the plate for 30 min at room temperature, and wells were then gently washed three times with media to remove non-adherent cells. Cells were resuspended in 100 μl and imaged on a Cytation 5 Cell Imaging Multi-Mode reader. Cells were imaged before injection with the appropriate substrate, immediately after injection, and 5 or 10 min after injection. […] Nuclear localization events were automatically counted in Ilastik (https://www.ilastik.org/). Percent nuclear localization was counted as nuclear localization events divided by total cells.

T1 sequence (Q9UBL9 whole entry G353H): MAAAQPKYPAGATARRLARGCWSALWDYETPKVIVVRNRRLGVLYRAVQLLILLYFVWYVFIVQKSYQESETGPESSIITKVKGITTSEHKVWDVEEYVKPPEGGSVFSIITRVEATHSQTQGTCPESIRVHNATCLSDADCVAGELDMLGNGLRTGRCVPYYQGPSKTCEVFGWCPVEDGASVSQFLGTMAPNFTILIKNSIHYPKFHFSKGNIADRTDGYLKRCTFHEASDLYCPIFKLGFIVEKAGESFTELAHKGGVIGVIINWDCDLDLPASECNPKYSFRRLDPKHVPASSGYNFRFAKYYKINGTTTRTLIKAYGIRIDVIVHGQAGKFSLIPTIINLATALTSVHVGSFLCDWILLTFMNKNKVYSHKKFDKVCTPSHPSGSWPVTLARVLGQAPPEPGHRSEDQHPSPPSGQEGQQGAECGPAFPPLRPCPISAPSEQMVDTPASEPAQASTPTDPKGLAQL
T2 sequence (Q9UBL9 whole entry Y299F, the tested form may be a part): as the sequence (Q9UBL9 whole entry G353H) above, with Y299F, H353G counted along it

Nc1ncnc2c1ncn2[C@@H]1O[C@H](COP(=O)(O)OP(=O)(O)OP(=O)(O)O)[C@@H](O)[C@H]1O [ATP]
signaling, % of WT activity [1]: 32% | signal relative to WT (P2X2 Y299F): 21 ± 12% | degree of Crz1p nuclear localization relative to negative control mutant P2X receptor [2]: double
